Assay results taken from patent US8101663B2, “Polymorphs of suberoylanilide hydroxamic acid” (Merck HDAC Research, LLC, priority 2002, dated 2012).
Values joined by “and” are separate entries in the source; they are usually repeats but may differ in a detail not shown here. Identical values can stand only once.

What was measured:
[1] = tested on: murine erythroleukemia cells (MELC); conditions: without continuing drug exposure; cited from earlier work
[2] = tested on: acetylated histones in peripheral mononuclear cells; assay: Histone acetylation in peripheral blood mononuclear cells after SAHA capsules (anti-acetylated histone H3 antibody); format: in vivo, patients; conditions: 400 mg per day dose level, preliminary analysis
Description: Peripheral blood mononuclear cells were collected pre-therapy, immediately post-infusion and between 2-10 hours after oral ingestion of the SAHA capsules to assess the effect of SAHA on the extent of histone acetylation in a normal host cell. Histones were isolated and probed with anti-acetylated histone (H3) antibody followed by HRP-secondary antibody.

[3] = Serum plasma levels of SAHA after IV and oral dosing (HPLC assay, LCMS using a deuterated standard); format: in vivo, humans; conditions: human
Description: Objectives: To define a safe daily oral regimen of SAHA that can be used in Phase II studies. In addition, the pharmacokinetic profile of the oral formulation of SAHA was be evaluated. The oral bioavailability of SAHA in humans in the fasting vs. non-fasting state and anti-tumor effects of treatment were also monitored. Additionally, the biological effects of SAHA on normal tissues and tumor cells were assessed and responses with respect to levels of histone acetylation were documented.
Patients: Patients with histologically documented advanced stage, primary or metastatic adult solid tumors that are refractory to standard therapy or for which no curative standard therapy exists. Patients must have a Karnofsky Performance Status of ≧70%, and adequate hematologic, hepatic and renal function. Patients must be at least four weeks from any prior chemotherapy, radiation therapy or other investigational anticancer drugs.
Dosing Schedule: On the first day, patients were first treated with 200 mg of intravenously-administered SAHA. Starting on the second day, patients were treated with daily doses of oral SAHA according to Table 1. Each cohort received a different dose of SAHA. “QD” indicates dosing once a day; “Q12 hours” indicates dosing twice a day. For example, patients in Cohort IV received […] of SAHA per day. Doses were administered to patients daily and continuously. Blood samples were taken on day one and on day 21 of oral treatment. Patients were taken off oral SAHA treatment due to disease progression, tumor regression, unacceptable side effects, or treatment with other therapies.
Cmax is the maximum concentration of SAHA observed after administration. IV SAHA was administered at 200 mg infused over two hours. The oral SAHA was administered in a single capsule at 200 mg. Tables 2 and 3 summarize the results of an HPLC assay (LCMS using a deuterated standard) that quantitates the amount of SAHA in the blood plasma of the patients versus time, using acetylated histone-4 (α-AcH4) as a marker.

[4] = tested on: carcinogen-induced (N-methylnitrosourea) mammary tumors; conditions: rats, SAHA in the diet over 130 days; cited from earlier work
[5] = tested on: solid tumors, Hodgkin's or non-Hodgkin's lymphomas, leukemia; assay: Anti-tumor response in patients on oral SAHA; format: in vivo
Excerpt: (§1) In another experiment, twenty-five patients with solid tumors have been enrolled onto arm A, thirteen patients with Hodgkin's or non-Hodgkin's lymphomas have been enrolled onto arm B, and one patient with acute leukemia and one patient with myelodysplastic syndrome have been enrolled onto arm C, as shown in Table 4.
Thirteen patients continued treatment for 3-12 months with responding or stable disease: thyroid (n=3), sweat gland (n=1), renal (n=2), larynx (n=1), prostate (n=1), Hodgkin's lymphoma (n=2), non-Hodgkin's lymphoma (n=2), and leukemia (n=1).
Six patients had tumor shrinkage on CT scans. Three of these six patients meet the criteria of partial response (one patient with metastatic laryngeal cancer and two patients with non-Hodgkin's lymphomas). These partial responses occurred at the dose levels of 400 mg BID (n=2) and 600 mg QD (n=1).

[6] = format: in vivo, patients; conditions: once a day, continuous
Excerpt: as §1
Among eleven patients treated in Cohort II, one patient experienced the DLT of grade 3 diarrhea and grade 3 dehydration during the first treatment cycle. Nine patients were entered into Cohort III. Two patients were inevaluable for the 28-day toxicity assessment because of early study termination due to rapid progression of disease. Of the seven remaining patients, five experienced DLT during the first treatment cycle: diarrhea/dehydration (n=1), fatigue/dehydration (n=1), anorexia (n=1), dehydration (n=1) and anorexia/dehydration (n=1). These five patients recovered in approximately one week after the study drug was held. They were subsequently dose reduced to 400 mg QD which appeared to be well tolerated. The median days on 400 mg BID for all patients in Cohort III was 21 days. […] Following protocol amendment, accrual was continued in cohort IV at a dose of 600 mg once a day. Of the seven patients enrolled onto cohort IV, two were inevaluable for the 28-day toxicity assessment because of early study termination due to rapid progression of disease. […]

[7] = Interim pharmacokinetic analysis of oral SAHA, dose escalation study; format: in vivo, patients
Description: as §1
The interim pharmacokinetic analysis was based on 18 patients treated on the dose levels of 200 mg QD, 400 mg QD, and 400 mg BID. […] Overall, the fraction of AUCinf due to extrapolation was 1% or less.

[8] = iv, 200 mg, Patient #1, IV, 200 mg infused over two hours
[9] = iv, 200 mg, Patient #2, IV, 200 mg infused over two hours
[10] = po, 200 mg, Patient #1, oral (fasting), single capsule 200 mg
[11] = po, 200 mg, Patient #1, oral (nonfasting), single capsule 200 mg
[12] = po, 200 mg, Patient #2, oral (fasting), single capsule 200 mg
[13] = po, 200 mg, Patient #2, oral (nonfasting), single capsule 200 mg

CC(=O)NCCCCCCNC(C)=O [HMBA, N,N′-hexamethylene bisacetamide]
Minimum duration of continuous exposure required to induce differentiation in a substantial portion (>20%) of the population [1]: about 36 hours

O=C(CCCCCCC(=O)Nc1ccccc1)NO [SAHA, suberoylanilide hydroxamic acid]
Time after ingestion up to which increased accumulation of acetylated histones could be detected [2]: up to 10 hours
half-life ([3]; Patient #2, oral (fasting), single capsule 200 mg): 1.37 h
AUC [3, 8]: 2550 ng·h/mL
Cmax [3, 8]: 1330 ng/mL
half-life [3, 8]: 0.333 h
AUC [3, 9]: 1800 ng·h/mL
Cmax [3, 9]: 1000 ng/mL
half-life [3, 9]: 0.35 h
AUC [3, 10]: 417 ng·h/mL
Cmax [3, 10]: 225 ng/mL
half-life [3, 10]: 1.33 h
AUC [3, 11]: 983 ng·h/mL
Cmax [3, 11]: 328 ng/mL
half-life [3, 11]: 1.07 h
AUC [3, 12]: 1050 ng·h/mL
Cmax [3, 12]: 362 ng/mL
AUC [3, 13]: 998 ng·h/mL
Cmax [3, 13]: 302 ng/mL
half-life [3, 13]: 1.55 h
Effect on development and continued growth of mammary tumors [4]: effective at inhibiting the development and continued growth
Patients meeting the criteria of partial response ([5]; dose levels 400 mg BID (n=2) and 600 mg QD (n=1), laryngeal cancer, non-Hodgkin's lymphomas): Three
Patients with tumor shrinkage on CT scans ([5]; oral SAHA): Six
Patients who continued treatment for 3-12 months with responding or stable disease ([5]; oral SAHA, 40 patients enrolled): Thirteen
Maximally tolerated dose for once daily oral administration [6]: 400 mg
bioavailability ([7]; human, plasma, calculated from the AUCinf values after the IV infusion and oral routes, read-out: Bioavailable fraction of SAHA): ~48%
half-life ([7]; human, plasma, oral, across dose groups 200 mg QD, 400 mg QD, 400 mg BID, fasting or with food, 18 patients, read-out: Mean estimates for apparent half-life): 1.02 to 1.9 h
Cmax ([7]; human, plasma, oral, dose levels 200 mg QD, 400 mg QD, 400 mg BID, 18 patients, read-out: Mean estimates of Cmax): 233 ng/mL to 570 ng/mL and 880 nM to 2.3 µM
Dose dependence of mean estimates of Cmax and AUCinf ([7]; oral, fasting or with food, 200 mg to 400 mg dose range): increased proportionally with dose
